In brackets after ≈: the same amount, converted by molar mass. Where two headings read alike, the source gives them in different places.
Assays:
[1] = system: C. albicans 595/20; assay: Fungistatic activity assay, broth microdilution; type: cell-based; details: Candida albicans, 595/20, 24 h
Procedure: (§1) Fungistatic activity was determined using Candida albicans ATCC 90028 from the American Type Culture Collection (ATCC, Manassas, VA, United States), and clinical isolates, C. albicans 636/20, C. albicans 595/20, and C. albicans 38 obtained from Wrocław Medical University, Wrocław, Poland.
(§2) All compounds were tested for biological activity against C. albicans ATTC 90028, C. albicans 636/20, C. albicans 595/20, and C. albicans 38 using the broth microdilution method. YPD medium (20 g glucose, 20 g Bacto Peptone, 10 g yeast extract, and 1 L of distilled water, pH 6.5) was used for the tests. The compound solutions were prepared in DMSO and diluted in YPD to obtain final concentrations in the range of 10–250 μg/mL. One hundred microlitres of each solution was pipetted into the wells of a 96-well microtiter plate. The inoculum was standardized to 0.5 McFarland standard and then diluted to obtain a final suspension with a cell density of 0.5–2.5 × 10^3 CFU/mL. The inoculum size was 100 μL. The positive control comprised DMSO added in the same concentration as the tested compounds in the inoculum, whereas the negative control consisted of DMSO diluted in the broth without the addition of inoculum. The microtiter plates were incubated in a Biosan PST-60 HL Plate Shaker-Thermostat (Riga, Latvia) at 35°C under shaking at 1,000 rpm for 24 h.

[2] = system: C. albicans 636/20; assay: Fungistatic activity assay, broth microdilution; type: cell-based; details: Candida albicans, 636/20, 24 h
Procedure: as §1, §2

[3] = Haemolytic activity assay; type: cell-based; details: human red blood cells (RBCs) from healthy donors, 37°C, read-out: Percentage of haemolysis
Procedure: This test is based on comparison of the cytotoxicity of all tested compounds in human red blood cells (RBCs) with that in a control group. RBCs for this method were obtained from a blood center from examined and healthy donors. The compounds were tested at 10, 20, 40, 60, 80, and 100 μM concentrations. The control sample contained only ethanol in the same volume as the test samples. […] The samples were incubated at 37°C for 1 h. Then, the absorbance at 540 nm was measured using a UV–Vis spectrophotometer (Specord 40, Analytik Jena, Jena, Germany). The haemolytic activity of the compounds was determined as the ratio of the absorbance of haemoglobin in the test samples to that in completely haemolyzed cells multiplied by 100%.

[4] = system: RBCs membrane; assay: Fluorescence spectroscopy of the RBCs membrane (DPH probe anisotropy); type: cell-based, human; details: for Fluorescence anisotropy of the DPH probe: membranes of RBCs, 37 °C; for Change in DPH anisotropy / RBCs membrane fluidity (in words): RBCs, 20, 60 and 100 μM
Procedure: Using the DPH probe, the anisotropy values of cell membranes of RBCs modified with the test compounds were measured. RBCs for this analysis were prepared according to the method described in subsection 2.5.3. Then, the DPH probe was added to RBCs with a haematocrit of 0.2%. The final concentration of the probe in the sample was 1.3 μM. The mixture was incubated protected from light at 37°C for 30 min. Then, the compounds dissolved in ethanol were added. The compounds were tested at 20, 60, and 100 μM concentrations. Samples with compounds and control samples with alcohol of the appropriate concentration were incubated at 37°C for 1 h. Measurements in triplicate were made in quartz cuvettes using a CARY Eclipse fluorimeter (Varian, San Diego, CA, United States) at 37°C. The excitation wavelength for the DPH probe is λexc = 360 nm and the emission wavelength is λem = 426 nm.

[5] = system: Caco-2 cells; assay: Resazurin-based viability assay; type: cell-based, human
Procedure: (§3) The human HepG2 and Caco-2 cell lines were obtained from the American Type Culture Collection (HB-8065™ and HTB-37™) and the MG-63 cell line was obtained from the European Collection of Authenticated Cell Cultures (Merck, Poznań, Poland). HepG2 cells were cultured in Dulbecco’s modified Eagle’s Medium - low glucose (Merck) supplemented with 10% foetal bovine serum (FBS) (Merck). Caco-2 cells were cultured in Dulbecco’s modified Eagle’s medium - high glucose (Merck) supplemented with 10% FBS, 2% HEPES buffer (Thermo Fisher Scientific, Warszawa, Poland), 1% Penicillin–Streptomycin-Amphotericin B Solution (100×, Merck), 1% MEM solution (100×, Thermo Fisher Scientific), and 1% Gentamycin Solution (10 mg/mL, Merck). MG-63 cells were cultured in Minimum Essential Medium (Merck) supplemented with 10% FBS. All cells were cultured in an atmosphere of 5% CO2 at 37°C.
(§4) HepG2, Caco-2, and […] were seeded in 96-well plates at 20,000 cells per well, and MG-63 cells at 10,000 cells per well, as described previously ([Marycz et al., 2012]; [Kornicka et al., 2017]). The tested compounds were dissolved in ethanol at 10 mg/mL. The concentrations were then adjusted to 1, 50, and 200 μg/mL in culture medium. Four controls were prepared: no ethanol added, and 0.01, 0.5, and 2% EtOH. The cells were treated with the compounds for 24 h. Then, cell viability was evaluated using the resazurin-based assay kit (TOX8), as described previously ([Grzesiak et al., 2011]; [Marycz et al., 2018]). The culture medium was replaced with medium containing 10% resazurin dye. The cells were incubated at 37°C in an atmosphere of 5% CO2 for 2 h. Absorbance levels were measured spectrophotometrically (Epoch) at a wavelengths of 600 nm for resazurin and 690 nm as a reference.

[6] = system: C. albicans strains; assay: Fungistatic activity assay, broth microdilution, values given over several strains; type: cell-based, Candida albicans; details: Candida albicans, read-out: MIC50 (over three strains)
Procedure: as §1, §2

[7] = system: MG63 cells; assay: Resazurin-based viability assay; type: cell-based, human; details: for Effect on MG63 proliferation / viability (in words): 24 h, 1, 50 and 200 μg/mL
Procedure: as §3, with “HepG2” for “The human HepG2 and Caco-2 cell lines were obtained from the American Type Culture Collection (HB-8065™ and HTB-37™) and the MG-63 cell line was obtained from the European Collection of Authenticated Cell Cultures (Merck, Poznań, Poland). HepG2”
The tested compounds were dissolved in ethanol at 10 mg/mL. The concentrations were then adjusted to 1, 50, and 200 μg/mL in culture medium. Four controls were prepared: no ethanol added, and 0.01, 0.5, and 2% EtOH. The cells were treated with the compounds for 24 h. […] The culture medium was replaced with medium containing 10% resazurin dye. The cells were incubated at 37°C in an atmosphere of 5% CO2 for 2 h. Absorbance levels were measured spectrophotometrically (Epoch) at a wavelengths of 600 nm for resazurin and 690 nm as a reference.

[8] = system: C. albicans ATTC 90028; assay: Fungistatic activity assay, broth microdilution; type: cell-based; details: Candida albicans, ATTC90028, 24 h
Procedure: as §1, §2

[9] = system: C. albicans 38; assay: Fungistatic activity assay, broth microdilution; type: cell-based, Candida albicans
Procedure: as §1, §2

[10] = system: HepG2 cells; assay: Resazurin-based viability assay; type: cell-based, human
Procedure: as §3, §4

[11] = system: human hepatocellular carcinoma HepG2 cells; parameters: method as in Yoo et al., 2005; Song et al., 2014, 2020; details: ref Yoo et al., 2005; Song et al., 2014, 2020; cited from earlier work
[12] = system: human colon carcinoma Caco-2 cell line; details: ref Lea et al., 2016; Padhy et al., 2022; cited from earlier work

| Structure (SMILES) | MIC50 [2] [µg/mL] | hemolysis at 1 h, 10 µM [3] [%] | hemolysis at 1 h, 20 µM [3] [%] | hemolysis at 1 h, 40 µM [3] [%] | hemolysis at 1 h, 60 µM [3] [%] | hemolysis at 1 h, 80 µM [3] [%] | hemolysis at 1 h, 100 µM [3] [%] | Fluorescence anisotropy of the DPH probe ([4]; 20 µM) | Fluorescence anisotropy of the DPH probe ([4]; 60 µM) | Fluorescence anisotropy of the DPH probe ([4]; 100 µM) | Effect on MG63 proliferation / viability (in words) [7] | MIC50 [8] [µg/mL] | MIC50 ([9]; Candida albicans, 38, 24 h) [µg/mL] | Change in DPH anisotropy / RBCs membrane fluidity (in words) [4] | also measured |
| --- | --- | --- | --- | --- | --- | --- | --- | --- | --- | --- | --- | --- | --- | --- | --- |
| CC(O)C(O)c1ccc2c(c1)OCO2 (stereo not shown) [1b, 1-(1,3-benzodioxol-5-yl)propane-1,2-diol] | 177 (≈ 902 µM) | 2.28 ± 0.251 | 1.86 ± 0.293 | 1.98 ± 0.272 | 1.88 ± 0.251 | 2.39 ± 0.349 | 2.58 ± 0.321 | 0.247 ± 0.018 | 0.274 ± 0.036 | 0.252 ± 0.012 |  |  |  |  | MIC50 [1]: 107 µg/mL (≈ 545 µM); Effect on Caco-2 proliferation / viability (in words) ([5]; 24 h, 1, 50 and 200 μg/mL): strongest inhibition |
| CC(O)C(=O)c1ccc2c(c1)OCO2 (stereo not shown) [1c, 1-(1,3-benzodioxol-5-yl)-2-hydroxypropan-1-one] | > 250 | 1.46 ± 0.08 | 1.17 ± 0.02 | 1.81 ± 0.302 | 1.85 ± 0.027 | 1.41 ± 0.295 | 1.51 ± 0.576 | 0.260 ± 0.011 | 0.267 ± 0.019 | 0.277 ± 0.078 | suppressed the proliferation |  |  |  | MIC50 [6]: 178 to 200 µg/mL (≈ 917 to 1030 µM) |
| CC=Cc1ccccc1 [2a, prop-1-en-1-yl benzene] |  |  |  |  |  |  |  | 0.262 ± 0.020 | 0.268 ± 0.023 | 0.267± 0.006 | promoted MGC63 proliferation | > 250 | > 250 |  | Effect on HepG2 proliferation / viability (in words) ([10]; 24 h, 1, 50 and 200 μg/mL): more strongly significantly suppressed the viability |
| CC(O)C(=O)c1ccccc1 (stereo not shown) [2c, 2-hydroxy-1-phenylpropan-1-one] |  | 1.16 ± 0.027 | 1.86 ± 0.697 | 1.42 ± 0.55 | 1.74 ± 0.59 | 1.94 ± 0.154 | 2.46 ± 0.322 | 0.236 ± 0.026 | 0.240 ± 0.019 | 0.238 ± 0.002 | promoted MGC63 proliferation | > 250 | > 250 | a decrease in anisotropy |  |
| COc1ccc(C(=O)C(C)O)cc1 (stereo not shown) [3c, 2-hydroxy-1-(4-methoxyphenyl)propan-1-one] |  | 1.83 ± 0.355 | 1.65 ± 0.509 | 1.73 ± 0.174 | 2.33 ± 0.436 | 2.15 ± 0.161 | 1.53 ± 0.134 | 0.239 ± 0.006 | 0.249 ± 0.007 | 0.244 ± 0.003 | promoted MGC63 proliferation |  |  | a decrease in anisotropy | MIC50 ([9]; Candida albicans, C. albicans 38, 24 h, 35°C, tested 10–250 μg/mL, read-out: MIC50): 61 µg/mL (≈ 339 µM); Effect on Caco-2 proliferative activity (in words) ([5]; 24 h, 50 μg/mL): induced the proliferative activity; Effect on HepG2 proliferative activity (in words) ([10]; 24 h, 50 μg/mL): induced the proliferative activity; Effect on MG63 proliferative activity / viability (in words) ([7]; 24 h, 50 μg/mL): induced the proliferative activity |
| C=CCc1ccc(O)c(OC)c1 [eugenol] |  |  |  |  |  |  |  |  |  |  |  |  |  |  | Effect on growth of HepG2 cells (in words) [11]: inhibited the growth; Apoptosis in Caco-2 cell line (in words) [12]: induced apoptosis |
